The CheMixHub ionic liquid set
Where “and” joins values, the source holds several entries; their conditions need not be identical. Equal values may be shown once. ± gives the uncertainty stated by the source.

Assay: xn = mol fraction of the nth substance listed

CCCCC[N+](CCCCC)(CCCCC)CCCCC.O=[N+]([O-])[O-] + CCCCCCCCCCCC[N+](C)(C)C.[Br-] + O
viscosity [mPa·s], 100 kPa
Details | x2 = 5.424e-05, x1 = 0.0001802 | x2 = 0.0001085, x1 = 0.0001801 | x2 = 0.0001627, x1 = 0.0001801 | x2 = 0.0002169, x1 = 0.0001801 | x2 = 0.0002712, x1 = 0.0001801 | x2 = 0.0003254, x1 = 0.0001801 | x2 = 0.0003796, x1 = 0.0001801 | x2 = 0.0004338, x1 = 0.0001801 | x2 = 0.000488, x1 = 0.0001801 | x2 = 0.0005422, x1 = 0.0001801
293.15 K | 1.045 ± 0.029 | 1.046 ± 0.029 | 1.048 ± 0.029 | 1.049 ± 0.029 | 1.05 ± 0.029 | 1.051 ± 0.029 | 1.052 ± 0.029 | 1.052 ± 0.029 | 1.052 ± 0.029 | 1.052 ± 0.029
298.15 K | 0.929 ± 0.029 | 0.931 ± 0.029 | 0.932 ± 0.029 | 0.933 ± 0.029 | 0.933 ± 0.029 | 0.934 ± 0.029 | 0.934 ± 0.029 | 0.934 ± 0.029 | 0.935 ± 0.029 | 0.935 ± 0.029
303.15 K | 0.825 ± 0.028 | 0.825 ± 0.028 | 0.825 ± 0.028 | 0.825 ± 0.028 | 0.826 ± 0.028 | 0.826 ± 0.028 | 0.827 ± 0.028 | 0.827 ± 0.028 | 0.827 ± 0.028 | 0.828 ± 0.028
308.15 K | 0.735 ± 0.028 | 0.736 ± 0.028 | 0.736 ± 0.028 | 0.736 ± 0.028 | 0.736 ± 0.028 | 0.737 ± 0.028 | 0.737 ± 0.028 | 0.738 ± 0.028 | 0.739 ± 0.028 | 0.739 ± 0.028
313.15 K | 0.668 ± 0.028 | 0.668 ± 0.028 | 0.669 ± 0.028 | 0.669 ± 0.028 | 0.669 ± 0.028 | 0.67 ± 0.028 | 0.67 ± 0.028 | 0.67 ± 0.028 | 0.671 ± 0.028 | 0.671 ± 0.028
318.15 K | 0.62 ± 0.027 | 0.621 ± 0.027 | 0.621 ± 0.027 | 0.622 ± 0.027 | 0.622 ± 0.027 | 0.622 ± 0.027 | 0.622 ± 0.027 | 0.622 ± 0.027 | 0.623 ± 0.027 | 0.623 ± 0.027

CCCC[N+](CCCC)(CCCC)CCCC.[Cl-] + OC[C@@H](O)[C@@H](O)[C@H](O)[C@@H](O)CO + O
100 kPa, x1 = 0.1428, x2 = 0.1428
Details | electrical conductivity [S/m] | viscosity [mPa·s]
293.15 K | 0.121 ± 0.012 | 390 ± 110
303.15 K | 0.189 ± 0.019 | 201 ± 37
313.15 K | 0.285 ± 0.029 | 107 ± 11
323.15 K | 0.42 ± 0.042 | 59.8 ± 1.6
333.15 K | 0.605 ± 0.06 | 34.5 ± 1.2

C[N+](C)(C)CCO.NCC(=O)[O-] + CO
viscosity [mPa·s], 100 kPa
Details | x1 = 0.1002 | x1 = 0.2001 | x1 = 0.2997 | x1 = 0.4004 | x1 = 0.4994 | x1 = 0.6 | x1 = 0.6997 | x1 = 0.8001 | x1 = 0.9 | x1 = 1
298.15 K | 2.3 ± 0.6 | 6.55 ± 0.6 | 15.49 ± 0.83 | 34.55 ± 0.96 | 64.1 ± 1.4 | 108.4 ± 3.4 | 170.2 ± 7.7 | 260 ± 15 | 369 ± 26 | 501 ± 41
303.15 K | 2.08 ± 0.6 | 5.72 ± 0.6 | 13.06 ± 0.82 | 28.31 ± 0.91 | 50.8 ± 1.1 | 84 ± 2.1 | 128.3 ± 4.7 | 193.9 ± 9.7 | 269 ± 16 | 363 ± 26
308.15 K | 1.89 ± 0.6 | 5.03 ± 0.6 | 11.1 ± 0.81 | 23.47 ± 0.87 | 40.9 ± 1.1 | 66.3 ± 1.5 | 99.9 ± 3 | 146.7 ± 6.1 | 201 ± 11 | 264 ± 16
313.15 K | 1.73 ± 0.6 | 4.47 ± 0.6 | 9.55 ± 0.61 | 19.74 ± 0.85 | 33.58 ± 0.98 | 53.4 ± 1.2 | 78.9 ± 2 | 111.5 ± 3.8 | 153.5 ± 6.8 | 201 ± 11
318.15 K | 1.58 ± 0.6 | 3.98 ± 0.6 | 8.28 ± 0.61 | 16.74 ± 0.84 | 27.95 ± 0.93 | 45.2 ± 1.2 | 62.8 ± 1.5 | 89.7 ± 2.6 | 118.8 ± 4.4 | 154.5 ± 7
323.15 K | 1.46 ± 0.6 | 3.57 ± 0.6 | 7.27 ± 0.61 | 14.32 ± 0.83 | 23.49 ± 0.89 | 37.8 ± 1.1 | 51.2 ± 1.3 | 71.9 ± 1.9 | 94.3 ± 3 | 121.1 ± 4.7

CS(C)=O + CCCC[n+]1ccn(C)c1.F[B-](F)(F)F
100 kPa, x2 = 0
Details | electrical conductivity [S/m] | viscosity
298.15 K | 0.042 ± 0.001 | 1.99 ± 0.04 mPa·s and 2.012 ± 0.025 mPa·s
303.15 K | – | 1.8 ± 0.04 mPa·s
308.15 K | – | 1.65 ± 0.04 mPa·s
313.15 K | – | 1.54 ± 0.03 mPa·s

CCCC[N+](CCCC)(CCCC)CCCC.[Cl-] + CSCC[C@H](N)C(=O)O
101 kPa
Details | electrical conductivity, x2 = 0.08333 [S/m] | electrical conductivity, x2 = 0.09091 [S/m] | electrical conductivity, x2 = 0.1 [S/m] | viscosity, x2 = 0.08333 [mPa·s] | viscosity, x2 = 0.09091 [mPa·s] | viscosity, x2 = 0.1 [mPa·s]
303.15 K | 0.0061 ± 0.001 | 0.0165 ± 0.001 | 0.0113 ± 0.001 | 2200 ± 840 | 2300 ± 890 | 2400 ± 940
313.15 K | 0.016 ± 0.001 | 0.026 ± 0.001 | 0.022 ± 0.001 | 1400 ± 470 | 1570 ± 550 | 1560 ± 540
323.15 K | 0.0259 ± 0.001 | 0.0418 ± 0.001 | 0.0313 ± 0.001 | 415 ± 92 | 530 ± 130 | 480 ± 110
333.15 K | 0.0749 ± 0.001 | 0.0929 ± 0.001 | 0.0837 ± 0.001 | 221 ± 38 | 295 ± 57 | 290 ± 55
343.15 K | 0.107 ± 0.0011 | 0.129 ± 0.0013 | 0.12 ± 0.0012 | 119 ± 15 | 157 ± 23 | 148 ± 21
353.15 K | 0.14 ± 0.0014 | 0.17 ± 0.0017 | 0.15 ± 0.0015 | 70 ± 7 | 94 ± 11 | 87 ± 10

Cc1ccc(S(=O)(=O)O)cc1 + C[N+](C)(C)Cc1ccccc1.[Cl-]
101 kPa, x2 = 0.3
Details | electrical conductivity [S/m] | viscosity [mPa·s]
292.97 K | – | 15200 ± 1500
298 K | – | 12900 ± 1300
302.95 K | – | 8733 ± 800
307.99 K | – | 5078 ± 430
308.2 K | 0.05721 ± 1e-09 | –
313.02 K | – | 2889 ± 220
313.22 K | 0.08258 ± 1e-08 | –
317.95 K | – | 1701 ± 110
318.31 K | 0.1275 ± 1e-08 | –
323.05 K | – | 1092 ± 62
323.16 K | 0.187 ± 1e-08 | –
328.06 K | – | 791 ± 41
328.17 K | 0.2562 ± 1e-08 | –
332.98 K | – | 452 ± 22
333.27 K | 0.345 ± 1e-07 | –

CCCn1cc[n+](C)c1C.O=S(=O)([N-]S(=O)(=O)C(F)(F)F)C(F)(F)F + O=C1CCCO1
100 kPa, frequency 0.005 MHz
Details | electrical conductivity [S/m]
293.15 K, x2 = 0.2006 | 0.28 ± 0.008
293.15 K, x2 = 0.6992 | 0.992 ± 0.03
293.15 K, x2 = 0.8002 | 1.19 ± 0.036
293.15 K, x2 = 0.8999 | 1.2 ± 0.037
298.15 K, x2 = 0 | 0.265 ± 0.008
303.15 K, x2 = 0.1289 | 0.395 ± 0.012
303.15 K, x2 = 0.8508 | 1.5 ± 0.045
308.15 K, x2 = 0.2006 | 0.537 ± 0.016
308.15 K, x2 = 0.6992 | 1.41 ± 0.042
308.15 K, x2 = 0.9495 | 1.11 ± 0.036
313.15 K, x2 = 0.6992 | 1.57 ± 0.047
313.15 K, x2 = 0.8508 | 1.77 ± 0.053
313.15 K, x2 = 0.8999 | 1.68 ± 0.051
318.15 K, x2 = 0.4952 | 1.32 ± 0.04
323.15 K, x2 = 0.2006 | 0.864 ± 0.026

CS(C)=O + COCCCC[n+]1ccn(C)c1.NCC(=O)[O-]
Details | viscosity [mPa·s]
308.15 K, 100 kPa, x2 = 0 | 1.65 ± 0.02

C[N+](C)(C)CCO.NCC(=O)[O-] + O
100 kPa
Details | viscosity [mPa·s]
298.15 K, x1 = 1 | 501 ± 41
303.15 K, x1 = 0.6966 | 202 ± 10
308.15 K, x1 = 0.1 | 4.34 ± 0.6
308.15 K, x1 = 0.3996 | 60.2 ± 1.1
313.15 K, x1 = 0.3996 | 49 ± 1
313.15 K, x1 = 0.5004 | 71.1 ± 1.4
318.15 K, x1 = 0.1 | 3.35 ± 0.6
318.15 K, x1 = 0.3 | 25.63 ± 0.85
318.15 K, x1 = 0.3996 | 40.89 ± 0.95
318.15 K, x1 = 0.5004 | 56 ± 1.1
318.15 K, x1 = 1 | 154.5 ± 7
